Legend:
[1] = tested on: Melanoma A2620 cells; experiment: Cell proliferation (growth rate, crystal violet) of melanoma A2620 cells with AS-7 by itself; assay type: cell-based, human; details: 10 μM AS-7, vehicle doubling time 2.5 days
Protocol: To examine the effect of AS-7 on the growth of several different cell lines, AS-7 at 10 μM was added to the culture medium the day after seeding the cells. The following cell lines were used to determine the effect of AS-7 on the rate of proliferation: HeLa, melanoma A2620, ovarian A2780, and breast T47D. All cell line were grown in culture medium (RPMI 1640 for the breast cancer cells and Dulbecco's modified Eagle's medium for the other cell lines) containing 10% heat inactivated fetal bovine serum without antibiotics (penicillin and streptomycin). […] The doubling times in HeLa, melanoma, ovarian and breast cancer derived cells were 0.9, 2.5, 1.0, and 1.4 days, respectively. AS-7 increased the doubling times of the HeLa, melanoma, ovarian, and breast cancer derived cells by 1.3, 1.3, 1.6, and 3.1 fold, respectively (FIGS. 11 through 14).

[2] = tested on: HeLa cells; experiment: Cell proliferation (growth rate, crystal violet) of HeLa cells with AS-7 by itself; assay type: cell-based, human
Protocol: Cell lines were plated at a sparse density in order to measure the rate of growth over a several day interval and obviate the effect of limited culture surface on the growth rate. The impact of AS-7 on cell proliferation became clear after two days and was dramatic after several days. While the impact of AS-7 was modest after two days, it became substantial after more than two days because the reduction in growth rate has the greatest impact on cell number after the cultures have expanded by several population doublings. […] AS-7 inhibited the rate of cell proliferation by 67% at a concentration of approximately 10 μM (FIG. 10). […] The following cell lines were used to determine the effect of AS-7 on the rate of proliferation: HeLa, melanoma […], ovarian A2780, and breast T47D. All cell line were grown in culture medium (RPMI 1640 for the breast cancer cells and Dulbecco's modified Eagle's medium for the other cell lines) containing 10% heat inactivated fetal bovine serum without antibiotics (penicillin and streptomycin).

[3] = tested on: HeLa cells; experiment: MTS cell viability of HeLa cells treated with anticancer drug with or without AS-7 (48 hours); assay type: cell-based, human; details: HeLa cells; 10 μM AS-7
[4] = tested on: 159C cells; experiment: MTS cell viability of breast cancer 159C cells, bortezomib with or without AS-7; assay type: cell-based; details: 10 μM AS-7, data not shown
Protocol: Breast cancer derived cell lines, T47D and 159C, were seeded in a 96 well tissue culture plate (2000 cells per well). The significance of these two lines of breast cancer derived cell lines is that the T47D cells positive for three markers used to optimize the chemotherapeutic treatment, namely HER2 receptor, estrogen receptor, and progesterone receptor. By contrast to the T47D cells, the 159C cells are negative for the three markers. The compounds, 10 μM AS-7 and a range of bortezomib (BioVision, Inc., Milpitas, Calif.) concentrations were added the following day. After 48 hours, MTS was added and absorbance was measured at 490 nm.

[5] = tested on: HeLa cells; experiment: MTS cell viability of HeLa cells treated with anticancer drug with or without AS-7 (48 hours); assay type: cell-based, human; details: for Dose Reduction Index (DRI), combination of AS-7 with bortezomib: CalcuSyn
Protocol: HeLa cells were seeded in a 96 well tissue culture plate (2000 cells per well). The compounds, 10 μM AS-7 and bortezomib (BioVision, Inc., Milpitas, Calif.) at the concentrations indicated in FIG. 1, were added the following day. AS-7 was prepared according to the Ugi reaction by combination of the four components: isocyanide (III), m-cyanobenzaldehyde (IV), 2-benzoylbenzoic acid (V), and histamine (VI) in refluxing methanol (Ref. http://www.occhem.com/synthesis/2561 2.html). The Medicinal Chemistry unit of Southern Research Institute (2000 Ninth Avenue South Birmingham, Ala. 35205) was contracted by a fee for service agreement to synthesize AS-7.
After 48 hours, MTS (3-(4,5-dimethylthiazol-2-yl)-5-(3-carboxymethoxyphenyl)-2-(4-sulfophenyl)-2H-tetrazolium) was added and absorbance was measured at 490 nm. […] Values in FIG. 1 are relative to controls that contained only the vehicle in which the drugs were dissolved. Vehicle had no effect on cell viability. Error bars in FIG. 1 are not visible if they are smaller than the symbols. […]
HeLa cells were seeded in a 96 well tissue culture plate (2000 cells per well). The compounds, 10 μM AS-7 and bortezomib at the concentrations indicated in FIG. 9 were added the following day. After 48 hours, MTS was added and absorbance was measured at 490 nm. […] Values are relative to controls that contained only the vehicle in which the drugs were dissolved. Vehicle had no effect on cell viability.

[6] = tested on: ovarian tumor derived IGROV cells; experiment: Crystal violet cell viability of ovarian IGROV cells, bortezomib with or without AS-7 (72 hours); assay type: cell-based; details: 10 μM AS-7
Protocol: Ovarian tumor-derived cell lines, IGROV and A2780, were seeded in a 96 well tissue culture plate (2000 cells per well). The compounds, 10 μM AS-7 and bortezomib (BioVision, Inc., Milpitas, Calif.) at the concentrations indicated in the figures, were added the following day. AS-7 was prepared as described in Example I above. […] Values are relative to cells that with the vehicle in which the drugs were dissolved. Vehicle had no effect on cell viability. Error bars in FIG. 6 and FIG. 7 are not shown if they are smaller than the symbols.

[7] = Solubility in aqueous solutions; assay type: physicochemical
Description: The ubiquitin-proteasome sensitizer compound and/or the ubiquitin-proteasome inhibitor compounds utilized in the method provided herein may also be modified by appending appropriate functionalities to enhance selective biological properties. Such modifications are known in the art and include those which increase biological penetration into a given biological system (e.g., blood, lymphatic system, central nervous system), increase oral availability, increase solubility to allow administration by injection, alter metabolism and alter rate of excretion. […] In some embodiments, AS-7 or an active derivative thereof can be dissolved at 50 mM AS-7 in dimethylsulfoxide containing 5% Cremaphor® EL detergent (Sigma Aldrich) and diluted approximately one thousand fold in a physiologic salt solution such as saline containing albumin in the range of the albumin concentration of blood. Alternatively, nanoparticles containing AS-7 or an active derivative thereof are administered to the subject. Nanoparticles can be made by mixing human albumin at a 3-4% solution in a salt solution of the desired pH and ionic strength, subjecting the solution to elevated pressure and releasing the solution via a small jet. Nanoparticles of optimal size can be purified by differential centrifugation. […]

## N#Cc1cccc(C(C(=O)NCC(c2ccccc2)c2ccccc2)N(CCc2c[nH]cn2)C(=O)c2ccccc2C(=O)c2ccccc2)c1 (stereo not shown) [AS-7]
[1]
  increase of doubling time: 1.3 fold
[2]; AS-7 alone
  rate of growth of HeLa cells: moderately decreased
[2]; AS-7 by itself, each of the cancer-derived cell lines tested
  cell viability, microscopic observation of the cultures: did not decrease cell viability
[2]; HeLa cells (FIG. 10), approximately 10 μM AS-7
  inhibition of the rate of cell proliferation: 67%
[2]; HeLa cells, 10 μM AS-7, vehicle doubling time 0.9 days
  increase of doubling time: 1.3 fold
[2]; Homo sapiens, HeLa cells (FIG. 10), AS-7 by itself, read-out: IC50 for growth inhibition
  IC50: ~7 µM
[3]
  increase in potency of the cytotoxic action of carfilzomib by AS-7: approximately 3.5 fold
[4]
  potentiation of the cytotoxic action of bortezomib: markedly potentiated
[5]; 10 μM AS-7, 48 hours, MTS
  shift of NLVS concentration dependence (HeLa cell viability): markedly shifted the NLVS concentration dependence to the left
[5]; AS-7 alone
  HeLa cell viability: no loss of cell viability
[5]; HeLa cells, 12 nM bortezomib
  Dose Reduction Index (DRI), combination of AS-7 with bortezomib: 7.3
[5]; HeLa cells, 16 nM bortezomib
  Dose Reduction Index (DRI), combination of AS-7 with bortezomib: 18
[5]; HeLa cells, 20 nM bortezomib
  Dose Reduction Index (DRI), combination of AS-7 with bortezomib: 72
[5]; HeLa cells, 10 μM AS-7
  increase in potency of the cytotoxic action of bortezomib by AS-7: approximately 3.5 fold
[6]
  potentiation of the cytotoxic action of bortezomib (loss of cell viability): markedly potentiates
[7]
  solubility in aqueous solutions: limited solubility in aqueous solutions
